Measurements from ChEMBL document CHEMBL2086259, “13,28-Epoxy triterpenoid saponins from Ardisia japonica selectively inhibit proliferation of liver cancer cells without affecting normal liver cells” (Bioorg Med Chem Lett, 2012).
Active and inactive are the calls of the source. The rule behind the calls is not given here.

How the values were obtained:
[1] = tested on: NCI-H460; assay: Cytotoxicity against human H460 cells after 72 hrs by MTT assay; assay type: functional, cell-based; conditions: NCI-H460, 72 h
[2] = […] of Cdc25A expression in human HL-7702 cells assessed as reduction in mRNA level at 2.5 uM after 12 to 48 hrs by RT-PCR analysis; assay type: ADME, cell-based; conditions: l02, 2.5 µM
[3] = tested on: A549; assay: Cytotoxicity against human A549 cells after 72 hrs by MTT assay; assay type: functional, cell-based; conditions: A549, 72 h
[4] = tested on: MCF7; assay: Cytotoxicity against human MCF7 cells after 72 hrs by MTT assay; assay type: functional, cell-based; conditions: MCF7, 72 h
[5] = Cell cycle arrest in human HL-7702 cells assessed as accumulation at G1 phase by FACS flow cytometry; assay type: cell-based; conditions: l02
[6] = tested on: Bel-7402; assay: Cell cycle arrest in human Bel7402 cells assessed as accumulation at sub-G1 phase by FACS flow cytometry; assay type: functional
[7] = tested on: MKN-45; assay: Cytotoxicity against human MKN45 cells after 72 hrs by MTT assay; assay type: functional, cell-based; conditions: MKN-45, 72 h
[8] = Induction of apoptosis in human HL-7702 cells assessed as early apoptotic cells at 2.5 uM after 48 hrs by annexin V-FITC/propidium iodide staining based flow cytometry (Rvb =6.7 %); assay type: cell-based; conditions: l02, 48 h
[9] = tested on: Bel-7402; assay: Induction of apoptosis in human Bel7402 cells assessed as late apoptotic cells at 2.5 uM after 12 hrs by annexin V-FITC/propidium iodide staining based flow cytometry (reference value: 5.5 %); assay type: functional
[10] = tested on: Bel-7402; assay: Induction of apoptosis in human Bel7402 cells assessed as early apoptotic cells at 2.5 uM after 48 hrs by annexin V-FITC/propidium iodide staining based flow cytometry (reference value: 6.9 %); assay type: functional
[11] = tested on: Bel-7402; assay: Induction of apoptosis in human Bel7402 cells assessed as late apoptotic cells at 2.5 uM after 24 hrs by annexin V-FITC/propidium iodide staining based flow cytometry (reference value: 7.5 %); assay type: functional
[12] = Cell cycle arrest in human HL-7702 cells assessed as accumulation at sub-G1 phase by FACS flow cytometry; assay type: cell-based; conditions: l02
[13] = tested on: Bel-7402; assay: Cell cycle arrest in human Bel7402 cells assessed as accumulation at G1 phase by FACS flow cytometry; assay type: functional
[14] = Cytotoxicity against human LTEP-A2 cells after 72 hrs by MTT assay; assay type: functional, cell-based; conditions: LTEP-A2, 72 h
[15] = tested on: Bcap37; assay: Cytotoxicity against human Bcap37 cells after 72 hrs by MTT assay; assay type: functional, cell-based; conditions: Bcap37, 72 h
[16] = tested on: Bel-7402; assay: Cytotoxicity against human Bel7402 cells after 72 hrs by MTT assay; assay type: functional, cell-based; conditions: Bel-7402, 72 h
[17] = tested on: HepG2; assay: Cytotoxicity against human HepG2 cells after 72 hrs by MTT assay; assay type: functional, cell-based; conditions: HepG2, 72 h
[18] = tested on: NCI-H446; assay: Cytotoxicity against human NCI-H446 cells after 72 hrs by MTT assay; assay type: functional, cell-based; conditions: NCI-H446, 72 h
[19] = Cytotoxicity against human HL-7702 cells measured for 72 hrs by MTT assay; assay type: cell-based; conditions: l02, 72 h
[20] = tested on: Bel-7402; assay: Induction of apoptosis in human Bel7402 cells assessed as early apoptotic cells at 2.5 uM after 24 hrs by annexin V-FITC/propidium iodide staining based flow cytometry (reference value: 3.8 %); assay type: functional
[21] = Cell cycle arrest in human HL-7702 cells assessed as accumulation at G2/M phase by FACS flow cytometry; assay type: cell-based; conditions: l02
[22] = tested on: Bel-7402; assay: Induction of apoptosis in human Bel7402 cells assessed as increase in caspase 8 levels; assay type: functional, cell-based
[23] = tested on: Caco-2; assay: Cytotoxicity against human Caco2 cells after 72 hrs by MTT assay; assay type: functional, cell-based; conditions: Caco-2, 72 h
[24] = tested on: Bel-7402; assay: Induction of apoptosis in human Bel7402 cells assessed as early apoptotic cells at 2.5 uM after 12 hrs by annexin V-FITC/propidium iodide staining based flow cytometry (reference value: 3.2 %); assay type: functional
[25] = Induction of apoptosis in human HL-7702 cells assessed as late apoptotic cells at 2.5 uM after 48 hrs by annexin V-FITC/propidium iodide staining based flow cytometry (Rvb =8.6 %); assay type: cell-based; conditions: l02, 48 h
[26] = Cytotoxicity against human HL-7702 cells after 72 hrs by MTT assay; assay type: cell-based; conditions: L02, 72 h
[27] = tested on: SGC-7901; assay: Cytotoxicity against human SGC7901 cells after 72 hrs by MTT assay; assay type: functional, cell-based; conditions: SGC-7901, 72 h
[28] = tested on: DU-145; assay: Cytotoxicity against human DU145 cells after 72 hrs by MTT assay; assay type: functional, cell-based; conditions: DU-145, 72 h
[29] = tested on: HCT-116; assay: Cytotoxicity against human HCT116 cells after 72 hrs by MTT assay; assay type: functional, cell-based; conditions: HCT-116, 72 h
[30] = Cell cycle arrest in human HL-7702 cells assessed as accumulation at S phase by FACS flow cytometry; assay type: ADME, cell-based; conditions: l02
[31] = Cytotoxicity against human HL-7702 cells at 2.5 uM by MTT assay; assay type: cell-based; conditions: l02, 2.5 µM, TDE = time-dependent effect
[32] = tested on: OVCAR-3; assay: Cytotoxicity against human OVCAR3 cells after 72 hrs by MTT assay; assay type: functional, cell-based; conditions: OVCAR-3, 72 h
[33] = tested on: NCI-H157; assay: Cytotoxicity against human NCI-H157 cells after 72 hrs by MTT assay; assay type: functional, cell-based; conditions: NCI-H157, 72 h
[34] = tested on: Bel-7402; assay: Induction of apoptosis in human Bel7402 cells assessed as late apoptotic cells at 2.5 uM after 48 hrs by annexin V-FITC/propidium iodide staining based flow cytometry (reference value: 3.7 %); assay type: functional
[35] = tested on: Bel-7402; assay: Cytotoxicity against human Bel7402 cells at 2.5 uM by MTT assay; assay type: functional, cell-based; conditions: TDE = time-dependent effect
[36] = tested on: Bel-7402; assay: Cell cycle arrest in human Bel7402 cells assessed as accumulation at G2/M phase by FACS flow cytometry; assay type: functional
[37] = tested on: Bel-7402; assay: Cytotoxicity against human Bel7402 cells measured for 72 hrs by MTT assay; assay type: functional, cell-based
[38] = Down regulation of Cyclin A expression in human HL-7702 cells assessed as reduction in mRNA level at 2.5 uM after 48 hrs by RT-PCR analysis; assay type: ADME, cell-based; design: scale not given: the % may be the effect or the level left; conditions: l02, 48 h
[39] = tested on: Bel-7402; assay: Down regulation of Cdc25A expression in human Bel7402 cells at 2.5 uM after 12 hrs by Western blotting analysis; assay type: functional, cell-based
[40] = tested on: Bel-7402; assay: Down regulation of CDK4 expression in human Bel7402 cells at 2.5 uM after 48 hrs by Western blotting analysis; assay type: functional, cell-based
[41] = tested on: Bel-7402; assay: Down regulation of Cyclin A expression in human Bel7402 cells at 2.5 uM after 48 hrs by Western blotting analysis; assay type: functional, cell-based
[42] = tested on: Bel-7402; assay: Induction of apoptosis in human Bel7402 cells assessed as caspase 8 activation; assay type: functional, cell-based
[43] = tested on: Bel-7402; assay: Down regulation of CDK2 expression in human Bel7402 cells at 2.5 uM after 48 hrs by Western blotting analysis; assay type: functional, cell-based
[44] = tested on: Bel-7402; assay: Down regulation of Cyclin B expression in human Bel7402 cells at 2.5 uM after 48 hrs by Western blotting analysis; assay type: functional, cell-based
[45] = tested on: Bel-7402; assay: Down regulation of CDK1 expression in human Bel7402 cells at 2.5 uM after 48 hrs by Western blotting analysis; assay type: functional, cell-based
[46] = tested on: Bel-7402; assay: Down regulation of Cdc25A expression in human Bel7402 cells at 2.5 uM after 48 hrs by Western blotting analysis; assay type: functional, cell-based

SMILES: C[C@@H]1O[C@@H](O[C@H]2[C@H](O[C@H]3CO[C@@H](O[C@H]4CC[C@]5(C)[C@H]6CC[C@]78OC[C@@]9(CCC(C)(C)C[C@H]97)[C@H](O)C[C@@]8(C)[C@]6(C)CC[C@H]5C4(C)C)[C@H](O[C@@H]4O[C@H](CO)[C@@H](O)[C@H](O)[C@H]4O)[C@H]3O)O[C@H](CO)[C@@H](O)[C@@H]2O)[C@H](O)[C@H](O)[C@H]1O
- IC50 [1]: > 10 µM
- Activity [2]: Toxic
- IC50 [3]: 4.41 µM
- IC50 [4]: > 10 µM
- Activity [5]: 67.3%
- Activity [6]: 48.4%
- IC50 [7]: 6.23 µM
- Activity [8]: 7.2%
- Activity [9]: 5.3%
- Activity [10]: 16.1%
- Activity [11]: 3.4%
- Activity [12]: < 1%
- Activity [13]: 76.6%
- IC50 [14]: 7.92 µM
- IC50 [15]: > 10 µM
- IC50 [16]: 1.18 µM
- IC50 [17]: 3.17 µM
- IC50 [18]: 7.74 µM
- Activity [19]: Dose-dependent effect
- Activity [20]: 42.3%
- Activity [21]: 12.3%
- Activity [22]: Active
- IC50 [23]: 7.66 µM
- Activity [24]: 36.5%
- Activity [25]: 8.9%
- IC50 [26]: > 100 µM
- IC50 [27]: 5.88 µM
- IC50 [28]: 5.47 µM
- IC50 [29]: > 10 µM
- Activity [30]: 19.7%
- Activity [31]: tde
- IC50 [32]: 8.22 µM
- IC50 [33]: 5.21 µM
- Activity [34]: 36.7%
- Activity [35]: tde
- Activity [36]: 23.4%
- Activity [37]: Dose-dependent effect

SMILES: CC1(C)CC[C@]23CO[C@@]4(CC[C@@H]5[C@@]6(C)CC[C@H](O[C@@H]7OC[C@H](O[C@@H]8O[C@H](CO)[C@@H](O)[C@H](O[C@@H]9O[C@H](CO)[C@@H](O)[C@H](O[C@@H]%10O[C@H](CO)[C@@H](O)[C@H](O)[C@H]%10O)[C@H]9O)[C@H]8O[C@@H]8OC[C@@H](O)[C@H](O)[C@H]8O)[C@H](O)[C@H]7O[C@@H]7O[C@H](CO)[C@@H](O)[C@H](O)[C@H]7O)C(C)(C)[C@@H]6CC[C@@]5(C)[C@]4(C)C[C@H]2O)[C@@H]3C1 [ARDISIANOSIDE B]
- IC50 [1]: > 10 µM
- Activity [2]: Toxic
- IC50 [3]: 4.47 µM
- IC50 [4]: > 10 µM
- Activity [5]: 68.4%
- Activity [6]: 57.8%
- IC50 [7]: 8.39 µM
- Activity [8]: 8.3%
- Activity [38]: 10%
- Activity [9]: 3.9%
- Activity [10]: 17.6%
- Activity [11]: 3.2%
- Activity [12]: < 1%
- Activity [13]: 74.5%
- IC50 [14]: > 10 µM
- IC50 [15]: > 10 µM
- IC50 [16]: 0.92 µM
- IC50 [17]: 2.98 µM
- IC50 [18]: 6.63 µM
- Activity [19]: Dose-dependent effect
- Activity [20]: 46.4%
- Activity [21]: 12.5%
- Activity [22]: Active
- Activity [39]: Active
- IC50 [23]: 7.19 µM
- Activity [40]: Active
- Activity [24]: 39.4%
- Activity [25]: 9.2%
- IC50 [26]: > 100 µM
- Activity [41]: Active
- IC50 [27]: 5.37 µM
- IC50 [28]: 6.17 µM
- Activity [42]: Active
- IC50 [29]: > 10 µM
- Activity [43]: Active
- Activity [44]: Active
- Activity [30]: 19.1%
- Activity [31]: tde
- IC50 [32]: > 10 µM
- Activity [45]: Active
- IC50 [33]: 5.09 µM
- Activity [34]: 41.5%
- Activity [46]: Active
- Activity [35]: tde
- Activity [36]: 25.5%
- Activity [37]: Dose-dependent effect

SMILES: COc1cccc2c1C(=O)c1c(O)c3c(c(O)c1C2=O)C[C@@](O)(C(=O)CO)C[C@@H]3O[C@H]1C[C@H](N)[C@@H](O)[C@H](C)O1 [EPIRUBICIN]
- IC50 [1]: 6.74 µM
- IC50 [3]: 0.88 µM
- IC50 [4]: 1.25 µM
- IC50 [7]: 0.66 µM
- IC50 [14]: 3.41 µM
- IC50 [15]: 0.89 µM
- IC50 [16]: 1.23 µM
- IC50 [17]: 2.23 µM
- IC50 [18]: 2.35 µM
- IC50 [23]: 0.41 µM
- IC50 [26]: 1.74 µM
- IC50 [27]: 0.51 µM
- IC50 [28]: 4.01 µM
- IC50 [29]: 0.57 µM
- IC50 [32]: 0.75 µM
- IC50 [33]: 1.72 µM
